According to patent US10131652B2, “Pyrimidinyloxy benzene derivatives as herbicides” (E. I. DU PONT DE NEMOURS AND COMPANY, priority 2014, dated 2018):
Where two headings read alike, the source gives them in different places.

Assays:
Test in all cases: Test E pre-/postemergence plant response
Assay type in all cases: in vivo
[1] = tested on: galium (catchweed bedstraw, Galium aparine); conditions: scale 0 to 100, read-out: Plant response rating, Galium; for pest or weed control at 16 g/ha: 16 g ai/ha; for pest or weed control at 31 g/ha: 31 g ai/ha; for pest or weed control at 62 g/ha: 62 g ai/ha; for pest or weed control at 125 g/ha: 125 g ai/ha
Outline: (§1)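 Pre-emergence: seeds sown in silt loam soil and sprayed with test chemicals in a non-phytotoxic solvent/surfactant mix. Post-emergence: plants at 2–18 cm (1- to 4-leaf stage) in peat/vermiculite medium treated with the same formulation. Visual rating versus controls after 7–21 days, 0 (no effect) to 100 (complete control).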

[2] = tested on: pigweed (Amaranthus retroflexus); conditions: scale 0 to 100, read-out: Plant response rating, Pigweed; for pest or weed control at 16 g/ha: 16 g ai/ha; for pest or weed control at 31 g/ha: 31 g ai/ha; for pest or weed control at 62 g/ha: 62 g ai/ha; for pest or weed control at 125 g/ha: 125 g ai/ha
Outline: as §1

[3] = tested on: blackgrass (Alopecurus myosuroides); conditions: scale 0 to 100, read-out: Plant response rating, Blackgrass; for pest or weed control at 16 g/ha: 16 g ai/ha; for pest or weed control at 31 g/ha: 31 g ai/ha; for pest or weed control at 62 g/ha: 62 g ai/ha; for pest or weed control at 125 g/ha: 125 g ai/ha
Outline: as §1

[4] = tested on: winter barley (Hordeum vulgare); conditions: scale 0 to 100, read-out: Plant response rating, Barley, Winter; for plant injury at 16 g/ha: 16 g ai/ha; for plant injury at 31 g/ha: 31 g ai/ha; for plant injury at 62 g/ha: 62 g ai/ha; for plant injury at 125 g/ha: 125 g ai/ha
Outline: as §1

[5] = tested on: chickweed (common chickweed, Stellaria media); conditions: scale 0 to 100, read-out: Plant response rating, Chickweed; for pest or weed control at 16 g/ha: 16 g ai/ha; for pest or weed control at 31 g/ha: 31 g ai/ha; for pest or weed control at 62 g/ha: 62 g ai/ha; for pest or weed control at 125 g/ha: 125 g ai/ha
Outline: as §1

[6] = tested on: lambsquarters (Chenopodium album); conditions: scale 0 to 100, read-out: Plant response rating, Lambsquarters; for pest or weed control at 16 g/ha: 16 g ai/ha; for pest or weed control at 31 g/ha: 31 g ai/ha; for pest or weed control at 62 g/ha: 62 g ai/ha; for pest or weed control at 125 g/ha: 125 g ai/ha
Outline: as §1

[7] = tested on: field violet (Viola arvensis); conditions: scale 0 to 100, read-out: Plant response rating, Field Violet; for pest or weed control at 16 g/ha: 16 g ai/ha; for pest or weed control at 31 g/ha: 31 g ai/ha; for pest or weed control at 62 g/ha: 62 g ai/ha; for pest or weed control at 125 g/ha: 125 g ai/ha
Outline: as §1

[8] = tested on: wild radish (Raphanus raphanistrum); conditions: scale 0 to 100, read-out: Plant response rating, Radish, Wild; for pest or weed control at 16 g/ha: 16 g ai/ha; for pest or weed control at 31 g/ha: 31 g ai/ha; for pest or weed control at 62 g/ha: 62 g ai/ha; for pest or weed control at 125 g/ha: 125 g ai/ha
Outline: as §1

[9] = tested on: deadnettle (henbit deadnettle, Lamium amplexicaule); conditions: scale 0 to 100, read-out: Plant response rating, Deadnettle; for pest or weed control at 16 g/ha: 16 g ai/ha; for pest or weed control at 31 g/ha: 31 g ai/ha; for pest or weed control at 62 g/ha: 62 g ai/ha; for pest or weed control at 125 g/ha: 125 g ai/ha
Outline: as §1

[10] = tested on: canarygrass (Phalaris minor); conditions: scale 0 to 100, read-out: Plant response rating, Canarygrass; for pest or weed control at 16 g/ha: 16 g ai/ha; for pest or weed control at 31 g/ha: 31 g ai/ha; for pest or weed control at 62 g/ha: 62 g ai/ha; for pest or weed control at 125 g/ha: 125 g ai/ha
Outline: as §1

[11] = tested on: Italian ryegrass (Lolium multiflorum); conditions: scale 0 to 100, read-out: Plant response rating, Ryegrass, Italian; for pest or weed control at 16 g/ha: 16 g ai/ha; for pest or weed control at 31 g/ha: 31 g ai/ha; for pest or weed control at 62 g/ha: 62 g ai/ha; for pest or weed control at 125 g/ha: 125 g ai/ha
Outline: as §1

Structure (SMILES): FC(F)c1cc(-c2ccccc2Oc2ncc(Br)cn2)no1 [Compound 62, 5-bromo-2-[2-[5-(difluoromethyl)-3-isoxazolyl]phenoxy]pyrimidine]
- pest or weed control at 16 g/ha ([1]; post-emergence, Postemergence): 70%
- pest or weed control at 31 g/ha ([1]; post-emergence, Postemergence): 70%
- pest or weed control at 62 g/ha ([1]; post-emergence, Postemergence): 75%
- pest or weed control at 125 g/ha ([1]; post-emergence, Postemergence): 90%
- pest or weed control at 16 g/ha ([1]; pre-emergence, Preemergence): 5%
- pest or weed control at 31 g/ha ([1]; pre-emergence, Preemergence): 60%
- pest or weed control at 62 g/ha ([1]; pre-emergence, Preemergence): 65%
- pest or weed control at 125 g/ha ([1]; pre-emergence, Preemergence): 100%
- pest or weed control at 16 g/ha ([2]; post-emergence, Postemergence): 90%
- pest or weed control at 31 g/ha ([2]; post-emergence, Postemergence): 90%
- pest or weed control at 62 g/ha ([2]; post-emergence, Postemergence): 95%
- pest or weed control at 125 g/ha ([2]; post-emergence, Postemergence): 95%
- pest or weed control at 16 g/ha ([2]; pre-emergence, Preemergence): 95%
- pest or weed control at 31 g/ha ([2]; pre-emergence, Preemergence): 100%
- pest or weed control at 62 g/ha ([2]; pre-emergence, Preemergence): 100%
- pest or weed control at 125 g/ha ([2]; pre-emergence, Preemergence): 100%
- pest or weed control at 16 g/ha ([3]; post-emergence, Postemergence): 15%
- pest or weed control at 31 g/ha ([3]; post-emergence, Postemergence): 30%
- pest or weed control at 62 g/ha ([3]; post-emergence, Postemergence): 40%
- pest or weed control at 125 g/ha ([3]; post-emergence, Postemergence): 75%
- pest or weed control at 16 g/ha ([3]; pre-emergence, Preemergence): 5%
- pest or weed control at 31 g/ha ([3]; pre-emergence, Preemergence): 15%
- pest or weed control at 62 g/ha ([3]; pre-emergence, Preemergence): 15%
- pest or weed control at 125 g/ha ([3]; pre-emergence, Preemergence): 65%
- plant injury at 16 g/ha ([4]; post-emergence, Postemergence): 5%
- plant injury at 31 g/ha ([4]; post-emergence, Postemergence): 10%
- plant injury at 62 g/ha ([4]; post-emergence, Postemergence): 20%
- plant injury at 125 g/ha ([4]; post-emergence, Postemergence): 35%
- plant injury at 16 g/ha ([4]; pre-emergence, Preemergence): 0%
- plant injury at 31 g/ha ([4]; pre-emergence, Preemergence): 0%
- plant injury at 62 g/ha ([4]; pre-emergence, Preemergence): 5%
- plant injury at 125 g/ha ([4]; pre-emergence, Preemergence): 5%
- pest or weed control at 16 g/ha ([5]; post-emergence, Postemergence): 65%
- pest or weed control at 31 g/ha ([5]; post-emergence, Postemergence): 70%
- pest or weed control at 62 g/ha ([5]; post-emergence, Postemergence): 80%
- pest or weed control at 125 g/ha ([5]; post-emergence, Postemergence): 90%
- pest or weed control at 16 g/ha ([5]; pre-emergence, Preemergence): 65%
- pest or weed control at 31 g/ha ([5]; pre-emergence, Preemergence): 75%
- pest or weed control at 62 g/ha ([5]; pre-emergence, Preemergence): 100%
- pest or weed control at 125 g/ha ([5]; pre-emergence, Preemergence): 100%
- pest or weed control at 16 g/ha ([6]; post-emergence, Postemergence): 75%
- pest or weed control at 31 g/ha ([6]; post-emergence, Postemergence): 95%
- pest or weed control at 62 g/ha ([6]; post-emergence, Postemergence): 95%
- pest or weed control at 125 g/ha ([6]; post-emergence, Postemergence): 95%
- pest or weed control at 16 g/ha ([6]; pre-emergence, Preemergence): 35%
- pest or weed control at 31 g/ha ([6]; pre-emergence, Preemergence): 85%
- pest or weed control at 62 g/ha ([6]; pre-emergence, Preemergence): 95%
- pest or weed control at 125 g/ha ([6]; pre-emergence, Preemergence): 100%
- pest or weed control at 16 g/ha ([7]; post-emergence, Postemergence): 60%
- pest or weed control at 31 g/ha ([7]; post-emergence, Postemergence): 65%
- pest or weed control at 62 g/ha ([7]; post-emergence, Postemergence): 70%
- pest or weed control at 125 g/ha ([7]; post-emergence, Postemergence): 85%
- pest or weed control at 16 g/ha ([7]; pre-emergence, Preemergence): 0%
- pest or weed control at 31 g/ha ([7]; pre-emergence, Preemergence): 10%
- pest or weed control at 62 g/ha ([7]; pre-emergence, Preemergence): 35%
- pest or weed control at 125 g/ha ([7]; pre-emergence, Preemergence): 100%
- pest or weed control at 16 g/ha ([8]; post-emergence, Postemergence): 65%
- pest or weed control at 31 g/ha ([8]; post-emergence, Postemergence): 70%
- pest or weed control at 62 g/ha ([8]; post-emergence, Postemergence): 90%
- pest or weed control at 125 g/ha ([8]; post-emergence, Postemergence): 100%
- pest or weed control at 16 g/ha ([8]; pre-emergence, Preemergence): 25%
- pest or weed control at 31 g/ha ([8]; pre-emergence, Preemergence): 40%
- pest or weed control at 62 g/ha ([8]; pre-emergence, Preemergence): 95%
- pest or weed control at 125 g/ha ([8]; pre-emergence, Preemergence): 100%
- pest or weed control at 16 g/ha ([9]; post-emergence, Postemergence): 35%
- pest or weed control at 31 g/ha ([9]; post-emergence, Postemergence): 35%
- pest or weed control at 62 g/ha ([9]; post-emergence, Postemergence): 65%
- pest or weed control at 125 g/ha ([9]; post-emergence, Postemergence): 70%
- pest or weed control at 16 g/ha ([9]; pre-emergence, Preemergence): 15%
- pest or weed control at 31 g/ha ([9]; pre-emergence, Preemergence): 20%
- pest or weed control at 62 g/ha ([9]; pre-emergence, Preemergence): 40%
- pest or weed control at 125 g/ha ([9]; pre-emergence, Preemergence): 100%
- pest or weed control at 16 g/ha ([10]; post-emergence, Postemergence): 25%
- pest or weed control at 31 g/ha ([10]; post-emergence, Postemergence): 35%
- pest or weed control at 62 g/ha ([10]; post-emergence, Postemergence): 45%
- pest or weed control at 125 g/ha ([10]; post-emergence, Postemergence): 55%
- pest or weed control at 16 g/ha ([10]; pre-emergence, Preemergence): 0%
- pest or weed control at 31 g/ha ([10]; pre-emergence, Preemergence): 0%
- pest or weed control at 62 g/ha ([10]; pre-emergence, Preemergence): 50%
- pest or weed control at 125 g/ha ([10]; pre-emergence, Preemergence): 90%
- pest or weed control at 16 g/ha ([11]; post-emergence, Postemergence): 10%
- pest or weed control at 31 g/ha ([11]; post-emergence, Postemergence): 20%
- pest or weed control at 62 g/ha ([11]; post-emergence, Postemergence): 30%
- pest or weed control at 125 g/ha ([11]; post-emergence, Postemergence): 35%
- pest or weed control at 16 g/ha ([11]; pre-emergence, Preemergence): 0%
- pest or weed control at 31 g/ha ([11]; pre-emergence, Preemergence): 0%
- pest or weed control at 62 g/ha ([11]; pre-emergence, Preemergence): 15%
- pest or weed control at 125 g/ha ([11]; pre-emergence, Preemergence): 25%
